Laboratory results taken from US11642320B2, “Nanoparticulate prodrugs” (priority 2016, dated 2023).

Experiments:
IL-6 = assay: Cytokine release from LPS-treated macrophages: IL-6; type: cell-based, mouse; settings: RAW 264.7, LPS 0.1 μg/mL, 24 hours
Procedure: (§1) For the cytokine release experiment, the RAW 264.7 cells were seeded in 24-well plates at a cellular density of 4×10^4 cells/well in culture medium and they were left in the incubator for 48 hours to reach 80% confluency. Then, the medium was replaced by fresh medium alone or fresh medium with LPS at 0.1 μg/mL, and the plates were incubated another 3 hours. Afterwards, the “standard” nanoparticles produced by emulsification-solvent evaporation at three concentrations: 1, 10 and 100 μg/mL of DXP and free dexamethasone phosphate at 82 μg/ml, which correspond to 100 μg/ml DXP considering molecular weight ratio, were added to some wells. Culture medium alone was used as negative control and LPS 0.1 μg/mL as positive control.
(§2) After 24 hours of incubation with the treatments, the supernatants were collected and frozen at −20° C. until the analysis was performed. The cells were detached and counted.
(§3) The mouse inflammatory cytokines TNFα, MCP-1, IL-10 and IL-6 were quantified using a Cytometric Beads Array (CBA) detection kit (BD Biosciences, USA). This study was performed in triplicate.

TNFα = assay: Cytokine release from LPS-treated macrophages: TNFα; type: cell-based, mouse; settings: RAW 264.7, LPS 0.1 μg/mL, 24 hours; 100 μg/ml DXP or same equivalent concentration (82 μg/ml dexamethasone phosphate)
Procedure: as §1, §2, §3

[1] = tested on: pro-inflammatory cytokine release, raw264.7 cells; assay: Control cytokine release assay without LPS treatment; type: cell-based, mouse; settings: raw264.7 cells without any LPS treatment
Procedure: as §3
This confirms that the developed nanoparticles are suitable for anti-inflammatory treatment as expected.

[2] = Pharmacokinetics in plasma after intravenous injection; design: species or system mice; settings: male, DBA/lOlaHsd, mouse, in vivo, 12 mg/kg
Procedure: Nanoparticles were prepared by emulsion-evaporation as described above and were diluted in PBS to obtain a final concentration of 2.5 mg/ml DXP, which corresponds to 1.55 mg/ml dexamethasone base. […] DXM. DBA/lOlaHsd male mice aged of 9 weeks (Envigo) were divided into two groups. One received the nanoparticle suspension and the other received the control, administration was carried out by intravenous injection in the tail vein at 12 mg/kg eq. DXM. For each group, 11 pharmacokinetic time points were performed with 7 mice per point, from 10 min to 48 hours. Blood sampling was achieved by terminal cardiac puncture using a 25G needle while mice were previously anesthetized with a lethal dose of pentobarbital. Immediately after, blood was centrifuged to recover plasma which was stored at −80° C. For every time point, 5 mice out of 7 underwent organs sampling after cardiac puncture. Liver, spleen, kidneys and lungs were removed and stored at −80° C.
To achieve quantification of DXM and DXP in plasma, an extraction process was developed. 100 μl of plasma samples were introduced into centrifugation tubes and 100 μl of the internal standart at 4 μg/ml in acetonitrile was added and vortexed during 30 seconds. 3 ml of a mixture chloroform/methanol: 9/1 (v/v) was added and tubes were vortexed vigorously 3 minutes. Centrifugation were performed at 3500 rpm, 30 min. Organic phase was recovered and evaporated using an evaporator under gas flow. Dried molecules were dissolved in 200 μl acetonitrile and this sample was analyzed by HPLC-UV. Calibration curves of DXP and DXM were linear, respectively in the range 0.5-100 μg/ml (R^2=0.9997, y=0.2199x−0.0165) and 0.1-100 μg/ml (R^2=0.9974, y=1.056x+0.1445). Regarding short time points (10 min, 20 min, 40 min), DXP and DXM concentrations were above the linearity range of the calibration curve. A second calibration curve for each molecule was set up, beginning with 50 μl plasma completed to 100 μl with milliQ water. Following stages were the same than previously described. Calibration curves “50 μl plasma” of DXP and DXM were linear, respectively in the range 50-800 μg/ml (R^2=0.9808, y=0.2229x−3.2128) and 20-400 μg/ml (R^2=0.9986, y=0.7178x−0.059). Internal standard was testosterone decanoate for DXP and dexamethasone acetate for DXM quantification.

SMILES: C[C@@H]1C[C@H]2[C@@H]3CCC4=CC(=O)C=C[C@]4(C)[C@@]3(F)[C@@H](O)C[C@]2(C)[C@@]1(O)C(=O)COP(=O)(O)O [DSP, dexamethasone sodium phosphate]
- IL-6 release (IL-6): No significant reduction
- TNFα release (TNFα): no effect detected
- induction of pro-inflammatory cytokine release [1]: neither DXP nanoparticles nor free drug induce pro-inflammatory cytokine release
- AUC0→t [2]: 18755 µg·min/mL
- C0 [2]: 22400 ng/mL
- Clearance [2]: 0.0046 mL/min
- Cmax [2]: 22100 ng/mL
- MRT [2]: 45 h
- Tmax [2]: 0.167 h
- Vd [2]: 12.50 mL
- plateau of DXM in plasma [2]: around 10 % of the injected dose
- t1/2 [2]: 28.8 h
